Test results published in patent publication US11981658B2, “Substituted aminopyridine compounds as EGFR inhibitors” (YUHAN CORPORATION, priority 2021, dated 2024).
Structures can show the parent of a compound that is named as a salt. Where two headings read alike, the source gives them in different places.

Key:
EGFR Del19/T790M/C797S = EGFR Del19/T790M/C797S (Homo sapiens, UniProt P00533, C797S/DEL746-750/T790M); test: Biochemical EGFR kinase inhibition assay (Lance Ultra TR-FRET), triple mutant del19/T790M/C797S
Outline: (§1)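 In this biochemical assay, phosphorylation after a one-hour room-temperature reaction was detected with europium-labelled anti-phosphopeptide antibody at 2 nM final concentration.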

EGFR L858R/T790M/C797S = EGFR L858R/T790M/C797S (Homo sapiens, UniProt P00533, C797S/L858R/T790M); test: Biochemical EGFR kinase inhibition assay (Lance Ultra TR-FRET), triple mutant L858R/T790M/C797S
Sequence of EGFR L858R/T790M/C797S (P00533 25-1210 T790M/C797S/L858R): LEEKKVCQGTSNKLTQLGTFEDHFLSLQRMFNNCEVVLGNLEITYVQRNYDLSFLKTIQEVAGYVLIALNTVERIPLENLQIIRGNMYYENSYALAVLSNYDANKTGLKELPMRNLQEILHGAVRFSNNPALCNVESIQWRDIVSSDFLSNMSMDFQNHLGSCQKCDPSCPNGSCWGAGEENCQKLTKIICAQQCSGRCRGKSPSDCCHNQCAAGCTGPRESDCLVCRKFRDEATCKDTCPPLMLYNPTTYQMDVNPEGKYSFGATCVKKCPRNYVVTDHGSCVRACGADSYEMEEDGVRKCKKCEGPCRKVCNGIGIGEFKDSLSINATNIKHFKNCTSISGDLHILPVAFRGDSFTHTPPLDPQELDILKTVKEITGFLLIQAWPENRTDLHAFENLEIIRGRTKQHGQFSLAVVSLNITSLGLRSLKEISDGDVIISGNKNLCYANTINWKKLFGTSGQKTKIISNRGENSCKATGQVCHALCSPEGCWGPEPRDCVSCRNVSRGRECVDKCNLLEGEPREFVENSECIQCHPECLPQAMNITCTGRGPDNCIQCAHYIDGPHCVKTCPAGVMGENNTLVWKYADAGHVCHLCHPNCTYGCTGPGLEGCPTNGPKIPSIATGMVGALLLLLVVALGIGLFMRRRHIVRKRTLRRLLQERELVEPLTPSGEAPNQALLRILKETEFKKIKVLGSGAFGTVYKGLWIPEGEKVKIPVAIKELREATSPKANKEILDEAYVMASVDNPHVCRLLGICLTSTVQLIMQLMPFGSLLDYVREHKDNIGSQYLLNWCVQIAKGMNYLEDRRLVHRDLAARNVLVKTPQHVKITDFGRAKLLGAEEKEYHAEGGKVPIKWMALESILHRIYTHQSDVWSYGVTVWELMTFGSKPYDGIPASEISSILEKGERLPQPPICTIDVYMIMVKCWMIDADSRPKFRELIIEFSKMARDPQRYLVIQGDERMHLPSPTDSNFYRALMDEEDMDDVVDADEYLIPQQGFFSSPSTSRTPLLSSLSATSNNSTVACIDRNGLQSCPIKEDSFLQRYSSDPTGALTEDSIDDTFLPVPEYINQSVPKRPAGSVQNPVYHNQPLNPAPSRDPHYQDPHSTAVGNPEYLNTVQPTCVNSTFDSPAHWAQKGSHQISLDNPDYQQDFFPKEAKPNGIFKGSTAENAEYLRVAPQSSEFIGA
Outline: as §1

EGFR Del19/C797S = EGFR Del19/C797S (Homo sapiens, UniProt P00533, C797S/DEL746-750); test: Biochemical EGFR kinase inhibition assay (Lance Ultra TR-FRET), double mutant del19/C797S
Sequence of EGFR Del19/C797S (P00533 with tags, fused parts or gaps DEL746-750/C797S): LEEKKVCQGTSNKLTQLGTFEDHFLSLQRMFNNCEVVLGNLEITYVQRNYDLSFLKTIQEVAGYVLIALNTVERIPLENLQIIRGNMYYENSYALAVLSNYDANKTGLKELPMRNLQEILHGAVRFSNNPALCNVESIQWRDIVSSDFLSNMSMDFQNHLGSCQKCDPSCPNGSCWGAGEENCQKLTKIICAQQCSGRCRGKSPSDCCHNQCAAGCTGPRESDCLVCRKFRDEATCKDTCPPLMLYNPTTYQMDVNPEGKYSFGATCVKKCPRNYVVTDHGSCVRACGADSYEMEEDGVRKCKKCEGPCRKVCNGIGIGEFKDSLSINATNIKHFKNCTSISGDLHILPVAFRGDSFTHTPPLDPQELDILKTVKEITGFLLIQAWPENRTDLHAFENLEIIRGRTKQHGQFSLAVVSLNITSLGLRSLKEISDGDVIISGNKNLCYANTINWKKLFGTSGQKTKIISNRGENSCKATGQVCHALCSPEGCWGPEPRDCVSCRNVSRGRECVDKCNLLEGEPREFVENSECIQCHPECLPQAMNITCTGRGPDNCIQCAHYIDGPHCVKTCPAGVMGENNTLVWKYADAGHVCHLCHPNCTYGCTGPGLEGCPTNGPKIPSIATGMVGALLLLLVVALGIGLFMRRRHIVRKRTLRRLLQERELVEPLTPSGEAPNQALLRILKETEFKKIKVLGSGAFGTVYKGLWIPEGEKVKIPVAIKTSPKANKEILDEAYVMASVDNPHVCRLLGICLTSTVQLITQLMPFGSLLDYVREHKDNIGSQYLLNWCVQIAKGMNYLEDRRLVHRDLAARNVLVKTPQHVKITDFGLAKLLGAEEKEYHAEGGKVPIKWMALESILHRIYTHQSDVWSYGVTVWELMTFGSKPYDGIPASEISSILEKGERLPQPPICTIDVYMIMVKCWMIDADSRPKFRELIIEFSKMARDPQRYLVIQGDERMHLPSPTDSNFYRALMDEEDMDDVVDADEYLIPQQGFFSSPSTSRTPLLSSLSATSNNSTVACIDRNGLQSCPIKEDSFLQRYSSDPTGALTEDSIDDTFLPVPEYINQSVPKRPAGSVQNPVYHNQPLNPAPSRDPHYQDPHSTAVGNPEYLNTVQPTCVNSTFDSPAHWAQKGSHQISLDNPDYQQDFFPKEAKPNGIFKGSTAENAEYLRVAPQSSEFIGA
Outline: as §1

EGFR L858R/C797S = EGFR L858R/C797S (Homo sapiens, UniProt P00533, C797S/L858R); test: Biochemical EGFR kinase inhibition assay (Lance Ultra TR-FRET), double mutant L858R/C797S
Sequence of EGFR L858R/C797S (P00533 25-1210 C797S/L858R): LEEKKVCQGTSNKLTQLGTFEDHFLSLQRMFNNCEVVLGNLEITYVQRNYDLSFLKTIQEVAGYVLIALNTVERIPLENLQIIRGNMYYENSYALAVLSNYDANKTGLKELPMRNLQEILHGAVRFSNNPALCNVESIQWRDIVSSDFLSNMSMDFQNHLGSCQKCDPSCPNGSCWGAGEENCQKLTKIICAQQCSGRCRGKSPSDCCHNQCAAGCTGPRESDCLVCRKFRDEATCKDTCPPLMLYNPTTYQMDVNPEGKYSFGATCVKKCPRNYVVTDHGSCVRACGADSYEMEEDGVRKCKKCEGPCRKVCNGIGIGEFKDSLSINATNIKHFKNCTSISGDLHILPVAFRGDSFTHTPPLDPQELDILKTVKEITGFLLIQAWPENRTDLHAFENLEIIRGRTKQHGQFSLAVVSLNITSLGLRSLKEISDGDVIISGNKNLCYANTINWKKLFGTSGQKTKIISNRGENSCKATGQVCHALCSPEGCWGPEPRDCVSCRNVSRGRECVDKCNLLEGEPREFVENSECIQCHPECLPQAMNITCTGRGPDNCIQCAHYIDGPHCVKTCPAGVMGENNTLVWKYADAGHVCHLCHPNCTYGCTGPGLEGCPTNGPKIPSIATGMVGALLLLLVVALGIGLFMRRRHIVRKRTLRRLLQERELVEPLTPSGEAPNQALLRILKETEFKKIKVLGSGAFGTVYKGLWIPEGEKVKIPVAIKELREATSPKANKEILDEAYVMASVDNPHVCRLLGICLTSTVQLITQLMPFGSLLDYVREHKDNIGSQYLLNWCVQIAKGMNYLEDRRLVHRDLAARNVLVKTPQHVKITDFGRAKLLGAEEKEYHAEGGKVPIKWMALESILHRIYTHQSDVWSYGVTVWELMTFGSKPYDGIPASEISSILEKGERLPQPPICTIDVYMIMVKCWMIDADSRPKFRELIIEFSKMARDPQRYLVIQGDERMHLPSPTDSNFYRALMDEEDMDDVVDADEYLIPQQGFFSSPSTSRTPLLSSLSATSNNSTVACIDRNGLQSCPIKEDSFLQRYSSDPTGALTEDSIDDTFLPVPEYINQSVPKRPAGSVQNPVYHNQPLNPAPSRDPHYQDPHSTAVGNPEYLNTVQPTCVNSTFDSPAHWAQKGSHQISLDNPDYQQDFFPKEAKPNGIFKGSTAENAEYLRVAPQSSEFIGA
Outline: as §1

EGFR wildtype (WT) = EGFR wildtype (WT) (Homo sapiens, UniProt P00533); test: Biochemical EGFR kinase inhibition assay (Lance Ultra TR-FRET), wildtype
Sequence of EGFR wildtype (WT) (P00533 25-1210): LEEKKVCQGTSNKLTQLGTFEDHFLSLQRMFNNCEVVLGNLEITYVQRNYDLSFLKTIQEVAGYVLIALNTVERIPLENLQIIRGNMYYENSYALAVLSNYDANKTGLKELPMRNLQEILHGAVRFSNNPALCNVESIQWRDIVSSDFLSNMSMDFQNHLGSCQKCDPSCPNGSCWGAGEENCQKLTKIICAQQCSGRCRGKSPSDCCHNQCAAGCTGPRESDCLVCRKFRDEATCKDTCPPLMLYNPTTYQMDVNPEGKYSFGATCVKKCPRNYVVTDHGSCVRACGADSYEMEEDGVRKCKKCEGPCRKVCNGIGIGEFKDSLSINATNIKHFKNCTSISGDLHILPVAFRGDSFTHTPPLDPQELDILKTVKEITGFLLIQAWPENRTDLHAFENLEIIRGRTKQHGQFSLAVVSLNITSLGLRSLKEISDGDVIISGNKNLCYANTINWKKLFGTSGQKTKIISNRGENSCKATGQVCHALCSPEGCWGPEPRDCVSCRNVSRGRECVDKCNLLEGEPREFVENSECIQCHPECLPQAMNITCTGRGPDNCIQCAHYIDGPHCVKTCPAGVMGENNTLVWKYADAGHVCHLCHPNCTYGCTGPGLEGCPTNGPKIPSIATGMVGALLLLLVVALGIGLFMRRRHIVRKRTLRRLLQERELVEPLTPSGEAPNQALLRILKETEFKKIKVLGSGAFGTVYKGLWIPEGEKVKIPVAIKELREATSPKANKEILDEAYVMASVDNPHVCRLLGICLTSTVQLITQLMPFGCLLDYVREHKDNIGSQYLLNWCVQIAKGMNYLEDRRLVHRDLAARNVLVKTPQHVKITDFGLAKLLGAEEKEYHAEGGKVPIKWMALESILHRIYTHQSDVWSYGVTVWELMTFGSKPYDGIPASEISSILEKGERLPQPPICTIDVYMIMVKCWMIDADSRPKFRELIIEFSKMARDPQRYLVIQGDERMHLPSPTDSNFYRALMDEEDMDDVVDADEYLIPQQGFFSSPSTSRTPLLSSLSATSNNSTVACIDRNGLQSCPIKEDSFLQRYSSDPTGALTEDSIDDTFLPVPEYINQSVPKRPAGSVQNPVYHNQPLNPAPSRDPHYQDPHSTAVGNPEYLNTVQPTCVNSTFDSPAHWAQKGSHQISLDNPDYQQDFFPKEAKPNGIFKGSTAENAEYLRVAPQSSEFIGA
Outline: as §1

[1] = ATP at Km, read-out: IC50 Del19/T790M/C797S (nM), Km ATP
[2] = IC50 Del19/T790M/C797S (nM), 100 μM ATP
[3] = ATP at Km, read-out: IC50 L858R/T790M/C797S (nM), Km ATP
[4] = IC50 L858R/T790M/C797S (nM), 100 μM ATP
[5] = ATP at Km, read-out: IC50 Del19/C797S (nM), Km ATP
[6] = IC50 Del19/C797S (nM), 100 μM ATP
[7] = ATP at Km, read-out: IC50 L858R/C797S (nM), Km ATP
[8] = IC50 L858R/C797S (nM), 100 μM ATP
[9] = ATP at Km, read-out: IC50 WT (nM), Km ATP

| SMILES | IC50 (EGFR Del19/T790M/C797S; [1]) [nM] | IC50 (EGFR Del19/T790M/C797S; [2]) [nM] | IC50 (EGFR L858R/T790M/C797S; [3]) [nM] | IC50 (EGFR L858R/T790M/C797S; [4]) [nM] | IC50 (EGFR Del19/C797S; [5]) [nM] | IC50 (EGFR Del19/C797S; [6]) [nM] | IC50 (EGFR L858R/C797S; [7]) [nM] | IC50 (EGFR L858R/C797S; [8]) [nM] | IC50 (EGFR wildtype (WT); [9]) [nM] | IC50 (EGFR wildtype (WT); IC50 WT (nM), 100 μM ATP) [nM] |
| --- | --- | --- | --- | --- | --- | --- | --- | --- | --- | --- |
| CN(C)CCC1CCN(c2cc(Nc3ccnc(-c4cnn(S(=O)(=O)C5CC5)c4)n3)ncc2C#Cc2cnn(C)c2)CC1 [Example 294, 2-(1-(Cyclopropylsulfonyl)-1H-pyrazol-4-yl)-N-(4-(4-(2-(dimethylamino)ethyl)piperidin-1-yl)-5-((1-methyl-1H-pyrazol-4-yl)ethynyl)pyridin-2-yl)pyrimidin-4-amine formate] | 0.1 | 0.1 | 0.1 | 0.1 | 0.2 | 0.2 | 0.3 | 1.6 | 0.6 | 351 |
| CN(C)CC1CCN(c2cc(Nc3ccnc(-c4cnn(S(=O)(=O)C5CC5)c4)n3)ncc2C#Cc2cnn(C)c2)CC1 [Example 295, 2-(1-(Cyclopropylsulfonyl)-1H-pyrazol-4-yl)-N-(4-(4-((dimethylamino)methyl)piperidin-1-yl)-5-((1-methyl-1H-pyrazol-4-yl)ethynyl)pyridin-2-yl)pyrimidin-4-amine] |  | 0.8 |  | 2.4 |  | 9.9 |  | 68.2 |  | > 10000 |
| CN(C)CC1(C)CCN(c2cc(Nc3ccnc(-c4cnn(S(=O)(=O)C5CC5)c4)n3)ncc2C#Cc2cnn(C)c2)CC1 [Example 296, 2-(1-(Cyclopropylsulfonyl)-1H-pyrazol-4-yl)-N-(4-(4-((dimethylamino)methyl)-4-methylpiperidin-1-yl)-5-((1-methyl-1H-pyrazol-4-yl)ethynyl)pyridin-2-yl)pyrimidin-4-amine] | 0.1 | 0.1 | 0.1 | 0.3 | 0.6 | 0.6 | 1.4 | 9 | 4.4 | 3250 |
| CN1CCC2(CCN(c3cc(Nc4ccnc(-c5cnn(S(=O)(=O)C6CC6)c5)n4)ncc3C#Cc3cnn(C)c3)CC2)C1 [Example 297, 2-(1-(Cyclopropylsulfonyl)-1H-pyrazol-4-yl)-N-(5-((1-methyl-1H-pyrazol-4-yl)ethynyl)-4-(2-methyl-2,8-diazaspiro[4.5]decan-8-yl)pyridin-2-yl)pyrimidin-4-amine formate] | 0.1 | 0.1 | 0.1 | 0.2 | 1.2 | 3.2 | 1 | 38.1 | 4.1 | 4180 |
| CN(C)CC1CCN(c2cc(Nc3ccnc(-c4cnn(S(=O)(=O)C5CC5)c4)n3)ncc2C#Cc2cnn(C3CC3)c2)CC1 [Example 298, N-(5-((1-Cyclopropyl-1H-pyrazol-4-yl)ethynyl)-4-(4-((dimethylamino)methyl)piperidin-1-yl)pyridin-2-yl)-2-(1-(cyclopropylsulfonyl)-1H-pyrazol-4-yl)pyrimidin-4-amine] | 0.3 | 0.4 | 0.4 | 1.5 | 5.3 | 12 | 18.5 | 140 | 23 | > 10000 |
| CN(C)CC1(C)CCN(c2cc(Nc3ccnc(-c4cnn(S(=O)(=O)C5CC5)c4)n3)ncc2C#Cc2cnn(C3CC3)c2)CC1 [Example 299, N-(5-((1-Cyclopropyl-1H-pyrazol-4-yl)ethynyl)-4-(4-((dimethylamino)methyl)-4-methylpiperidin-1-yl)pyridin-2-yl)-2-(1-(cyclopropylsulfonyl)-1H-pyrazol-4-yl)pyrimidin-4-amine] | 0.2 | 0.2 | 0.1 | 0.2 | 1.1 | 1 | 1.4 | 17.2 | 4.7 | 7510 |
| CN(C)CC1(F)CCN(c2cc(Nc3ccnc(-c4cnn(S(=O)(=O)C5CC5)c4)n3)ncc2C#Cc2cnn(C3CC3)c2)CC1 [Example 300, N-(5-((1-Cyclopropyl-1H-pyrazol-4-yl)ethynyl)-4-(4-((dimethylamino)methyl)-4-fluoropiperidin-1-yl)pyridin-2-yl)-2-(1-(cyclopropylsulfonyl)-1H-pyrazol-4-yl)pyrimidin-4-amine] | 0.9 | 0.9 | 1.1 | 1.5 | 3.3 | 10.3 | 13.5 | 288 | 26.8 | > 10000 |
| CN(C)CC1CCN(c2cc(Nc3ccnc(-c4cnn(S(=O)(=O)C5CC5)c4)n3)ncc2C#Cc2cnn(CC(F)F)c2)CC1 [Example 301, 2-(1-(Cyclopropylsulfonyl)-1H-pyrazol-4-yl)-N-(5-((1-(2,2-difluoroethyl)-1H-pyrazol-4-yl)ethynyl)-4-(4-((dimethylamino)methyl)piperidin-1-yl)pyridin-2-yl)pyrimidin-4-amine] | 0.6 | 0.7 | 0.6 | 1.4 | 7.2 | 4.9 | 11.2 | 138 | 22.9 | > 10000 |
| CN(C)CC1(C)CCN(c2cc(Nc3ccnc(-c4cnn(S(=O)(=O)C5CC5)c4)n3)ncc2C#Cc2cnn(CC(F)F)c2)CC1 [Example 302, 2-(1-(Cyclopropylsulfonyl)-1H-pyrazol-4-yl)-N-(5-((1-(2,2-difluoroethyl)-1H-pyrazol-4-yl)ethynyl)-4-(4-((dimethylamino)methyl)-4-methylpiperidin-1-yl)pyridin-2-yl)pyrimidin-4-amine] | 0.1 | 0.3 | 0.1 | 0.3 | 0.8 | 0.7 | 1.5 | 11.5 | 5 | 2690 |
| CN(C)CCC1CCN(c2cc(Nc3ccnc(-c4cnn(S(=O)(=O)C5CC5)c4)n3)ncc2C#Cc2cnn(CC(F)F)c2)CC1 [Example 303, 2-(1-(Cyclopropylsulfonyl)-1H-pyrazol-4-yl)-N-(5-((1-(2,2-difluoroethyl)-1H-pyrazol-4-yl)ethynyl)-4-(4-(2-(dimethylamino)ethyl)piperidin-1-yl)pyridin-2-yl)pyrimidin-4-amine] | 0.1 | 0.3 | 0.1 | 0.2 | 0.4 | 0.3 | 0.6 | 3.4 | 1.4 | 206 |
| O=S(=O)(C1CC1)n1cc(-c2nccc(Nc3cc(N[C@H]4CC[C@](O)(CO)CC4)c(C#Cc4cnn(C(F)F)c4)cn3)n2)cn1 [Example 304, (1s,4s)-4-((2-((2-(1-(Cyclopropylsulfonyl)-1H-pyrazol-4-yl)pyrimidin-4-yl)amino)-5-((1-(difluoromethyl)-1H-pyrazol-4-yl)ethynyl)pyridin-4-yl)amino)-1-(hydroxymethyl)cyclohexan-1-ol] |  | 2.7 |  | 5.3 |  | 64 |  | 103 |  | > 10000 |
| CC1(CO)CCN(c2cc(Nc3ccnc(-c4cnn(S(=O)(=O)C5CC5)c4)n3)ncc2C#Cc2cnn(C(F)F)c2)CC1 [Example 305, (1-(2-((2-(1-(Cyclopropylsulfonyl)-1H-pyrazol-4-yl)pyrimidin-4-yl)amino)-5-((1-(difluoromethyl)-1H-pyrazol-4-yl)ethynyl)pyridin-4-yl)-4-methylpiperidin-4-yl)methanol] | 1.3 | 1 | 0.5 | 0.9 | 0.6 | 2.4 | 0.8 | 5.4 |  | 1520 |
| O=S(=O)(C1CC1)n1cc(-c2nccc(Nc3cc(NC[C@H]4CC[C@@H](O)C4)c(C#Cc4cnn(C(F)F)c4)cn3)n2)cn1 [Example 306, (1R,3S)-3-(((2-((2-(1-(Cyclopropylsulfonyl)-1H-pyrazol-4-yl)pyrimidin-4-yl)amino)-5-((1-(difluoromethyl)-1H-pyrazol-4-yl)ethynyl)pyridin-4-yl)amino)methyl)cyclopentan-1-ol] | 1 | 1.6 | 0.4 | 3.9 | 3.4 | 4.6 | 4.3 | 6.8 | 14.6 | > 10000 |
| O=S(=O)(C1CC1)n1cc(-c2nccc(Nc3cc(NC[C@H]4CC[C@H](O)CC4)c(C#Cc4cnn(C(F)F)c4)cn3)n2)cn1 [Example 307, (1r,4r)-4-(((2-((2-(1-(Cyclopropylsulfonyl)-1H-pyrazol-4-yl)pyrimidin-4-yl)amino)-5-((1-(difluoromethyl)-1H-pyrazol-4-yl)ethynyl)pyridin-4-yl)amino)methyl)cyclohexan-1-ol] | 14.7 | 29.6 | 0.3 | 35.1 | 17.2 | 37.3 | 21.3 | 44.2 | 87.7 | > 10000 |
